{
  "source": "patent US4937371A",
  "about": "“Dihydroxynaphthalene derivatives” (Hoffmann-La Roche Inc., priority 1989, dated 1990)",
  "key": {"[1]": {"test_system": "Myeloperoxidase accumulation (rat acetic acid colitis model)", "assay": "Acetic acid-induced colitis in rats, in vivo", "set-up": "species or system rat (Sprague-Dawley)", "text": "Acetic Acid-Induced Colitis in Rats, In Vivo\nThe rat acetic acid-induced colitis bioassay has been described by J. E. Krawisz, et al. in Amer. J. Proc. Gastro. Col. Rec. Surg. 31: 11-18 (1980), and by P. Sharon and W. F. Stenson in Gastroenterolgy 88: 55-63 (1985) and 86:453-460 (1984). Acetic acid-induced colitis is characterized by the movement of inflammatory cells into the colon, with the number of such cells in the mucosa being measured by the activity of myeloperoxidase, a marker enzyme for these cells. Positive desirable activity is indicated by a reduction in the high levels of myeloperoxidase caused by acetic acid. Male rats (Sprague-Dawley), weighing 150 to 300 g, were pretreated twice daily for two days with either the vehicle (water, or dimethylsulfoxide) or the test inhibitor compound suspended in water or dissolved in dimethylsulfoxide and orally administered. On the third day, the animals were dosed the same as on the previous two days, anesthetized with metofane, and 2 ml of 2.5% acetic acid was injected by syringe into the colonic lumen, followed immediately by 3 ml of air and a rinse consisting of 3 ml of phosphate-buffered saline (the acetic acid is Present in the lumen for a sufficient period to cause inflammation without producing severe necrosis or irreversible damage). The animals were administered a second dose of the test compound in the same amount about 16 hours later. Twenty four hours after the acetic acid treatment, the animals were sacrificed, the colonic mucosa was surgically removed and homogenized in an aqueous buffer at pH 6 with a Tissumizer or similar device, and myeloperoxidase was measured in the homogenate using o-phenylenediamine as a chromagen, as described by A. Voller, D. E. Bidwell and A. Bartlett in The Enzyme Linked Immunosorbent Assay (ELISA), Zoological Soc., London, 1979, pages 29-30. Control animals were pretreated with the vehicle and saline in place of acetic acid."}, "[2]": {"molecular_target": "T1, Δ^5 -lipoxygenase from rat basophilic leukemia (RBL-1) cells (Rattus norvegicus, UniProt P12527)", "T1 construct": "The Δ^5 -lipoxygenase was derived from the supernatant fraction of lysed RBL-1 cells; endogenous in cells; host or cells: RBL-1 (rat basophilic leukemia) cells, 49,000 g supernatant of the homogenate", "T1 sequence (P12527 1-673)": "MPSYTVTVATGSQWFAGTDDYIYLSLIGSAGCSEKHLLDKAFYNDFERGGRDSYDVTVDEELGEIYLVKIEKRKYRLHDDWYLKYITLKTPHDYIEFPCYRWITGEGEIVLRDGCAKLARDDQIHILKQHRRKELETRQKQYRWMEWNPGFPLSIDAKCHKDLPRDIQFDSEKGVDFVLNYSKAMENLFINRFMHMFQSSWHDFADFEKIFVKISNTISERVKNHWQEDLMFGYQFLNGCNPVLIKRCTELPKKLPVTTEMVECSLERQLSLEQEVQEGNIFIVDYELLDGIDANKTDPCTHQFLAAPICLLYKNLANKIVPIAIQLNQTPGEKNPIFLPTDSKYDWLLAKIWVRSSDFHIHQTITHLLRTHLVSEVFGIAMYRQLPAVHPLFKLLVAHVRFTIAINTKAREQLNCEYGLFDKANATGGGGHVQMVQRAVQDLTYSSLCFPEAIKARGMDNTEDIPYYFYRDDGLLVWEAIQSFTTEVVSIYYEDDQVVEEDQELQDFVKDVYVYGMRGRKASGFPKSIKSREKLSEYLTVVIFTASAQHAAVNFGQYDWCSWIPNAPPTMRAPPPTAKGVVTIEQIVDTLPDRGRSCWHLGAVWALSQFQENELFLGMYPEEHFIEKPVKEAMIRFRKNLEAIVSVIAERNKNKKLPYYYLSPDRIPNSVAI", "assay": "In vitro test for Δ^5-lipoxygenase inhibitors (RBL-1 cell supernatant)", "assay_type": "biochemical", "conditions": "Δ^5-lipoxygenase from RBL-1 cells; 10 min preincubation at 30° C.; 6.7 μM arachidonic acid; 37° C.; pH 7.2", "procedure": "IN VITRO TEST FOR Δ^5 -LIPOXYGENASE INHIBITORS\nCompounds of formula I of the invention were tested for their effect on Δ^5 -lipoxygenase from rat basophilic leukemia (RBL-1) cells. The activity of this enzyme was determined by measuring the catalytic conversion of [1-^14 C]arachidonic acid to [1-^14 C-5-hydroperoxy- 6,8,11,14-eicosatetraenoic acid ([1-^14 C]-5-HPETE) which leads to the formation of the 5-hydroxy derivative ([1-^14 C]-5-HETE). The Δ^5 -lipoxygenase was derived from the supernatant fraction of lysed RBL-1 cells using a modification of the method previously described by Jakschik and Lee [Nature 287:51 (1980)]. Briefly, RBL-1 cells were lysed by homogenization in ice-cold buffer (50 mM Tris-HCl buffer, pH 7.2, containing 1 mM EDTA and 14 μM indomethacin). The homogenate was centrifuged at 4° C. and 49,000 g for 20 minutes and the resulting supernatant fraction was used as the source of Δ^5 -lipoxygenase. […] The ethereal extract containing [1-^14 C]-5-HETE and unreacted substrate analyzed by silica gel TLC using isooctane-methylethyl ketone acetic acid (100:9:1) as the developing solvent. […] The effect of inhibitors on Δ^5 -lipoxygenase activity was determined by preincubating the enzyme for 10 minutes at 30° C. in the presence or absence of various concentrations of the drug prior to addition of substrate. […]"}, "[3]": {"test_system": "PGE2 formation (cyclooxygenase (CO) pathway)", "assay": "Rat peritoneal macrophage assay, in vitro: PGE2 formation", "assay_type": "cell-based", "conditions": "0.5 h, rat peritoneal macrophages, 30 min incubation, A 23187-stimulated", "text": "(§1) RAT PERITONEAL MACROPHAGE ASSAY, IN VITRO\n(§2) The rat peritoneal macrophage assay measures the ability of a test compound to influence the release of arachidonic acid (AA) from phospholipid stores in the plasma membrane and the subsequent metabolism of AA by the Δ^5 -lipoxygenase (5-LO) and cyclooxygenase (CO) pathways to the final products excreted by the cells: leukotriene B4 (LTB4, from the 5-LO pathway) and prostaglandin E2 (PGE2, from the CO Pathway).\n(§3) Macrophages were obtained from rats by peritoneal lavage with phosphate buffered saline minus Ca^+2 and Mg^+2 (PBS). Cells were washed 3 times with PBS and resuspended in Delbecco's Modified Eagle medium (Gibco Laboratories) containing L-glutamine and D-glucose and supplemented with 10% fetal calf serum. Cells were counted on a Coulter ZBA cell counter and then resuspended to a concentration of 4×10^6 cells/mL. […] The extracellular fluid was removed and ^14 C radioactivity released into this fluid from AA metabolism was measured by liquid scintillation spectroscopy. The amounts of LTB4 and PGE2 were measured in the extracellular fluid by radioimmunoassay with specific antisera. […]\n(§4) This assay measures inhibition by the test compounds of the 5-LO and the CO pathways of AA metabolism and this inhibition is expressed as an IC50 for LTB4 and PGE2 formation, respectively."}, "[4]": {"test_system": "LTB4 formation (Δ^5 -lipoxygenase (5-LO) pathway)", "assay": "Rat peritoneal macrophage assay, in vitro: LTB4 formation", "assay_type": "cell-based", "conditions": "0.5 h, rat peritoneal macrophages, 30 min incubation, A 23187-stimulated", "text": "as §1, §2, §3, §4"}},
  "note": "pIC50: −log10 of the molar value.",
  "data": [
    {"smiles": "CCCc1c(OCCc2ccc3cc(O)c(O)cc3c2)ccc(C(=O)O)c1O", "note": "[4-[2-(6,7-Dihydroxy-2-naphthalenyl)ethoxy]-2-hydroxy-3-propylbenzoic acid]", "values": [
      {"measurement": "% Inhibition of Myeloperoxidase Accumulation", "setting": "[1]; 10 mg/kg p.o.", "value": "60 ± 13", "unit": "%"}
    ]},
    {"smiles": "CCCc1c(OCCCCC(=O)c2ccc3cc(O)c(O)cc3c2)ccc(C(=O)O)c1O", "note": "[4-[[5-(6,7-Dihydroxy-2-naphthalenyl)-5-oxopentyl]oxy]-2-hydroxy-3-propylbenzoic acid]", "values": [
      {"measurement": "% Inhibition of Myeloperoxidase Accumulation", "setting": "[1]; 30 mg/kg p.o.", "value": "80 ± 18", "unit": "%"}
    ]},
    {"smiles": "O=C(O)c1ccc(OCCCCCCc2ccc3cc(O)c(O)cc3c2)cc1", "note": "[4-[6-(6,7-Dihydroxy-2-naphthalenyl)hexyloxy]benzoic acid]", "values": [
      {"measurement": "% Inhibition of Myeloperoxidase Accumulation", "setting": "[1]; 10 mg/kg p.o.", "value": "68 ± 13", "unit": "%"}
    ]},
    {"smiles": "O=C(O)c1ccc(OCCCCCCc2ccc3cc(O)c(O)cc3c2)cc1O", "note": "[4-[6-(6,7-Dihydroxy-2-naphthalenyl)hexyloxy]-2-hydroxybenzoic acid]", "values": [
      {"measurement": "% Inhibition of Myeloperoxidase Accumulation", "setting": "[1]; 1 mg/kg p.o.", "value": "65 ± 9", "unit": "%"}
    ]},
    {"smiles": "CCCc1c(OCCCc2ccc3cc(O)c(O)cc3c2)ccc(C(=O)O)c1O", "note": "[4-[3-(6,7-Dihydroxy-2-naphthalenyl)propoxy]-2-hydroxy-3-propylbenzoic acid]", "values": [
      {"measurement": "% Inhibition of Myeloperoxidase Accumulation", "setting": "[1]; 1 mg/kg p.o.", "value": "21 ± 4", "unit": "%"}
    ]},
    {"smiles": "CCCc1c(OCCCCc2ccc3c(Cl)c(O)c(O)c(Cl)c3c2)ccc(C(=O)O)c1O", "note": "[4-[4-(5,8-Dichloro-6,7-dihydroxy-2-naphthalenyl)butoxy]-2-hydroxy-3-propylbenzoic acid]", "values": [
      {"measurement": "% Inhibition of Myeloperoxidase Accumulation", "setting": "[1]; 10 mg/kg p.o.", "value": "71 ± 7", "unit": "%"}
    ]},
    {"smiles": "CCCc1c(OCCCCCCc2ccc3cc(O)c(O)cc3c2)ccc(C(=O)O)c1O", "note": "[4-[6-(6,7-dihydroxy-2-naphthalenyl)hexyloxy]-2-hydroxy-3-propylbenzoic acid]", "values": [
      {"measurement": "% Inhibition of Myeloperoxidase Accumulation", "setting": "[1]; 1 mg/kg p.o.", "value": "46 ± 12", "unit": "%"}
    ]},
    {"smiles": "CCCc1c(OCCCCc2ccc3cc(O)c(O)cc3c2)ccc(C(=O)O)c1O", "note": "[4-[4-(6,7-Dihydroxy-2-naphthalenyl)butoxy]-2-hydroxy-3-propylbenzoic acid]", "values": [
      {"measurement": "pIC50", "setting": "[2]", "value": 8.33},
      {"measurement": "pIC50", "setting": "[3]", "value": 5.70},
      {"measurement": "pIC50", "setting": "[4]", "value": 5.52},
      {"measurement": "% Inhibition of Myeloperoxidase Accumulation", "setting": "[1]; 3 mg/kg p.o.", "value": "82 ± 8", "unit": "%"}
    ]},
    {"smiles": "CCCc1c(OCCCCCC(=O)c2ccc3cc(O)c(O)cc3c2)ccc(C(=O)O)c1O", "note": "[4-[[6-(6,7-dihydroxy-2-naphthalenyl)-6-oxohexyl]oxy]-2-hydroxy-3-propylbenzoic acid]", "values": [
      {"measurement": "pIC50", "setting": "[3]", "value": 5.70},
      {"measurement": "pIC50", "setting": "[4]", "value": 5.52}
    ]},
    {"smiles": "CCCc1c(OCCCCCc2ccc3cc(O)c(O)cc3c2)ccc(C(=O)O)c1O", "note": "[4-[5-(6,7-Dihydroxy-2-naphthalenyl)pentyloxy]-2-hydroxy-3-propylbenzoic acid]", "values": [
      {"measurement": "% Inhibition of Myeloperoxidase Accumulation", "setting": "[1]; 10 mg/kg p.o.", "value": "56 ± 11", "unit": "%"}
    ]}
  ]
}
